Data: ChEMBL document CHEMBL1147878, “Synthesis and in vitro antimicrobial activity of new 2-[p-substituted-benzyl]-5-[substituted-carbonylamino]benzoxazoles” (2007)
In brackets after ≈: the same amount, converted by molar mass.

What was measured:
Format in all cases: functional
Nakaseomyces glabratus = experiment: Antifungal activity against Candida glabrata after 48 hrs by serial dilution method
Staphylococcus aureus = experiment: Antibacterial activity against Staphylococcus aureus ATCC 25923 after 24 hrs by serial dilution method; conditions: ATCC 25923, 24 h
Escherichia coli = experiment: Antibacterial activity against Escherichia coli ATCC 23556 after 24 hrs by serial dilution method; conditions: ATCC 23556, 24 h
Candida albicans = experiment: Antifungal activity against Candida albicans after 48 hrs by serial dilution method
Pseudomonas aeruginosa = experiment: Antibacterial activity against Pseudomonas aeruginosa ATCC 10145 after 24 hrs by serial dilution method; conditions: ATCC 10145, 24 h
Bacillus subtilis = experiment: Antibacterial activity against Bacillus subtilis ATCC 6633 after 24 hrs by serial dilution method; conditions: ATCC 6633, 24 h
Pichia kudriavzevii = experiment: Antifungal activity against Candida krusei ATCC 6258 after 48 hrs by serial dilution method; conditions: ATCC 6258, 48 h

| Compound | MIC (Nakaseomyces glabratus) [µg/mL] | MIC (Staphylococcus aureus) [µg/mL] | MIC (Escherichia coli) [µg/mL] | MIC (Candida albicans) [µg/mL] | MIC (Pseudomonas aeruginosa) [µg/mL] | MIC (Bacillus subtilis) [µg/mL] | MIC (Pichia kudriavzevii) [µg/mL] |
| --- | --- | --- | --- | --- | --- | --- | --- |
| O=C(Nc1ccc2oc(Cc3ccccc3)nc2c1)c1ccc(Br)cc1 | 25 (≈ 61.4 µM) | 50 (≈ 123 µM) | 50 (≈ 123 µM) | 25 (≈ 61.4 µM) | 25 (≈ 61.4 µM) | 50 (≈ 123 µM) | 25 (≈ 61.4 µM) |
| O=C(Cc1ccc(Cl)cc1)Nc1ccc2oc(Cc3ccccc3)nc2c1 | 25 (≈ 66.3 µM) | 100 (≈ 265 µM) | 50 (≈ 133 µM) | 25 (≈ 66.3 µM) | 50 (≈ 133 µM) | 100 (≈ 265 µM) | 25 (≈ 66.3 µM) |
| CN(C)[C@@H]1C(O)=C(C(N)=O)C(=O)[C@@]2(O)C(O)=C3C(=O)c4c(O)cccc4[C@@](C)(O)[C@H]3C[C@@H]12 [TETRACYCLINE] |  | 1.56 (≈ 3.51 µM) | 3.12 (≈ 7.02 µM) |  | 50 (≈ 113 µM) | 1.56 (≈ 3.51 µM) |  |
| CC(C)(C)c1ccc(C(=O)Nc2ccc3oc(Cc4ccccc4)nc3c2)cc1 | 25 (≈ 65 µM) | 200 (≈ 520 µM) | 25 (≈ 65 µM) | 50 (≈ 130 µM) | 25 (≈ 65 µM) | 50 (≈ 130 µM) | 25 (≈ 65 µM) |
| O=C(Nc1ccc2oc(Cc3ccccc3)nc2c1)c1ccc(F)cc1 | 25 (≈ 72.2 µM) | 50 (≈ 144 µM) | 50 (≈ 144 µM) | 12.5 (≈ 36.1 µM) | 25 (≈ 72.2 µM) | 25 (≈ 72.2 µM) | 50 (≈ 144 µM) |
| CC1(C)S[C@@H]2[C@H](NC(=O)[C@H](N)c3ccccc3)C(=O)N2[C@H]1C(=O)O [AMPICILLIN] |  | 1.56 (≈ 4.46 µM) | 12.5 (≈ 35.8 µM) |  | > 200 | 1.56 (≈ 4.46 µM) |  |
| O=C(Nc1ccc2oc(Cc3ccc(Cl)cc3)nc2c1)c1ccc([N+](=O)[O-])cc1 | 25 (≈ 61.3 µM) | 100 (≈ 245 µM) | 25 (≈ 61.3 µM) | 50 (≈ 123 µM) | 25 (≈ 61.3 µM) | 50 (≈ 123 µM) | 25 (≈ 61.3 µM) |
| Clc1cc(Cl)c(OCC#CI)cc1Cl [HALOPROGIN] |  |  |  | 3.12 (≈ 8.63 µM) |  |  |  |
| O=C(Cc1ccc([N+](=O)[O-])cc1)Nc1ccc2oc(Cc3ccc(Cl)cc3)nc2c1 | 25 (≈ 59.3 µM) | 50 (≈ 119 µM) | 50 (≈ 119 µM) | 12.5 (≈ 29.6 µM) | 25 (≈ 59.3 µM) | 50 (≈ 119 µM) | 25 (≈ 59.3 µM) |

Continued by falling MIC (Candida albicans), values first:

| MIC (Nakaseomyces glabratus) [µg/mL] | MIC (Staphylococcus aureus) [µg/mL] | MIC (Escherichia coli) [µg/mL] | MIC (Candida albicans) [µg/mL] | MIC (Pseudomonas aeruginosa) [µg/mL] | MIC (Bacillus subtilis) [µg/mL] | MIC (Pichia kudriavzevii) [µg/mL] | Compound |
| --- | --- | --- | --- | --- | --- | --- | --- |
| 12.5 (≈ 34.7 µM) | 50 (≈ 139 µM) | 25 (≈ 69.4 µM) | 50 (≈ 139 µM) | 25 (≈ 69.4 µM) | 25 (≈ 69.4 µM) | 12.5 (≈ 34.7 µM) | O=C(Cc1ccc(F)cc1)Nc1ccc2oc(Cc3ccccc3)nc2c1 |
| 25 (≈ 76.1 µM) | 200 (≈ 609 µM) | 100 (≈ 305 µM) | 50 (≈ 152 µM) | 100 (≈ 305 µM) | 50 (≈ 152 µM) | 12.5 (≈ 38.1 µM) | O=C(Nc1ccc2oc(Cc3ccccc3)nc2c1)c1ccccc1 |
| 50 (≈ 127 µM) | 12.5 (≈ 31.7 µM) | 50 (≈ 127 µM) | 50 (≈ 127 µM) | 25 (≈ 63.3 µM) | 100 (≈ 253 µM) | 25 (≈ 63.3 µM) | O=C(Cc1ccc(F)cc1)Nc1ccc2oc(Cc3ccc(Cl)cc3)nc2c1 |
| 12.5 (≈ 30.4 µM) | 50 (≈ 122 µM) | 50 (≈ 122 µM) | 50 (≈ 122 µM) | 25 (≈ 60.8 µM) | 25 (≈ 60.8 µM) | 6.25 (≈ 15.2 µM) | O=C(Cc1ccc(Cl)cc1)Nc1ccc2oc(Cc3ccc(Cl)cc3)nc2c1 |
| 25 (≈ 66.3 µM) | 50 (≈ 133 µM) | 50 (≈ 133 µM) | 25 (≈ 66.3 µM) | 25 (≈ 66.3 µM) | 25 (≈ 66.3 µM) | 25 (≈ 66.3 µM) | O=C(Cc1ccccc1)Nc1ccc2oc(Cc3ccc(Cl)cc3)nc2c1 |
| 25 (≈ 56.5 µM) | 50 (≈ 113 µM) | 50 (≈ 113 µM) | 25 (≈ 56.5 µM) | 50 (≈ 113 µM) | 50 (≈ 113 µM) | 25 (≈ 56.5 µM) | O=C(Nc1ccc2oc(Cc3ccc(Cl)cc3)nc2c1)c1ccc(Cl)c([N+](=O)[O-])c1 |
| 12.5 (≈ 35.1 µM) | 50 (≈ 140 µM) | 50 (≈ 140 µM) | 25 (≈ 70.1 µM) | 50 (≈ 140 µM) | 50 (≈ 140 µM) | 25 (≈ 70.1 µM) | CCc1ccc(C(=O)Nc2ccc3oc(Cc4ccccc4)nc3c2)cc1 |
| 6.25 (≈ 17.9 µM) | 25 (≈ 71.8 µM) | 25 (≈ 71.8 µM) | 12.5 (≈ 35.9 µM) | 25 (≈ 71.8 µM) | 25 (≈ 71.8 µM) | 6.25 (≈ 17.9 µM) | Cc1ccc(C(=O)Nc2ccc3oc(Cc4ccccc4)nc3c2)s1 |
| 12.5 (≈ 33.5 µM) | 50 (≈ 134 µM) | 100 (≈ 268 µM) | 12.5 (≈ 33.5 µM) | 25 (≈ 67 µM) | 25 (≈ 67 µM) | 12.5 (≈ 33.5 µM) | O=C(Nc1ccc2oc(Cc3ccccc3)nc2c1)c1ccc([N+](=O)[O-])cc1 |
| 12.5 (≈ 32.8 µM) | 50 (≈ 131 µM) | 25 (≈ 65.7 µM) | 12.5 (≈ 32.8 µM) | 50 (≈ 131 µM) | 25 (≈ 65.7 µM) | 12.5 (≈ 32.8 µM) | O=C(Nc1ccc2oc(Cc3ccc(Cl)cc3)nc2c1)c1ccc(F)cc1 |
| 12.5 (≈ 30.7 µM) | 50 (≈ 123 µM) | 50 (≈ 123 µM) | 12.5 (≈ 30.7 µM) | 25 (≈ 61.3 µM) | 25 (≈ 61.3 µM) | 12.5 (≈ 30.7 µM) | O=C(Nc1ccc2oc(Cc3ccccc3)nc2c1)c1ccc(Cl)c([N+](=O)[O-])c1 |
|  |  |  | 6.25 (≈ 18.1 µM) |  |  |  | Clc1ccccc1C(c1ccccc1)(c1ccccc1)n1ccnc1 [CLOTRIMAZOLE] |
